# Experimental data from PubChem BioAssay (NCI).
# Where “and” joins values, the source holds several entries; their conditions need not be identical. Equal entries are not always repeated.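 Method: 48-hour compound exposure of cells in 96-well plates, five concentrations, linear interpolation of endpoints. The concentration for 50% growth inhibition is given as GI50. TGI is the concentration that stops growth completely.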
# Legend:
# Experiment in all cases: NCI anticancer screen, dose series, 48 h
# M14 melanoma = test system: M14 melanoma
# ACHN renal = test system: ACHN renal
# NCI-H23 lung = test system: NCI-H23 lung
# SF-539 CNS = test system: SF-539 CNS
# OVCAR-4 ovarian = test system: OVCAR-4 ovarian
# CAKI-1 renal = test system: CAKI-1 renal
# HOP-62 NSCLC = test system: HOP-62 NSCLC
# RXF 393 renal = test system: RXF 393 renal
# SK-MEL-2 melanoma = test system: SK-MEL-2 melanoma
# HCT-15 colon = test system: HCT-15 colon
# MDA-N = test system: MDA-N
SMILES,TGI (M14 melanoma),TGI (ACHN renal),TGI (NCI-H23 lung),TGI (SF-539 CNS),TGI (OVCAR-4 ovarian),TGI (CAKI-1 renal),TGI (HOP-62 NSCLC),TGI (RXF 393 renal),TGI (SK-MEL-2 melanoma),TGI (HCT-15 colon),TGI (MDA-N),GI50 (ACHN renal),GI50 (NCI-H23 lung),GI50 (SF-539 CNS),GI50 (OVCAR-4 ovarian),GI50 (RXF 393 renal),GI50 (SK-MEL-2 melanoma),GI50 (CAKI-1 renal),GI50 (HOP-62 NSCLC),GI50 (HCT-15 colon)
C/C(=C1/N=C(c2cc([N+](=O)[O-])ccc2Cl)N(C2=CC=C(Cl)CC2)C1=O)c1cc2ccccc2oc1=O,> 100 µM,> 100 µM,58.8 µM,> 100 µM,> 100 µM,> 100 µM,> 100 µM,,,,,,,,,,,,,
O=C(/C=C/c1ccc(Cl)c(Cl)c1)CCN1CCN(CCC(=O)/C=C/c2ccc(Cl)c(Cl)c2)CC1,35.6 µM,34.5 µM,,30.7 µM,46.7 µM,31.8 µM,60.6 µM,38.9 µM,92.6 µM,34.1 µM,,,,,,,,,,
CNC(=O)CNC(=O)CCC(=O)N(C)C,> 100 µM,> 100 µM,> 100 µM,> 100 µM,,> 100 µM,> 100 µM,,> 100 µM,> 100 µM,> 100 µM,,,,,,,,,
O=C(CN=C(CN(c1ccccc1)c1ccccc1)Oc1c([N+](=O)[O-])cc([N+](=O)[O-])cc1[N+](=O)[O-])N1CCNCC1,> 100 µM,> 100 µM,> 100 µM,> 100 µM,> 100 µM,,> 100 µM,> 100 µM,,> 100 µM,> 100 µM,,,,,,,,,
CCCCN(CCCC)c1ccc(N=Nc2ccc(S(=O)(=O)O)cc2)cc1,> 100 µM,> 100 µM,47.2 µM,33.4 µM,74.7 µM,49.6 µM,,29.8 µM,> 100 µM,40.4 µM,> 100 µM,,,,,,,,,
C[C@@H]1CCN(C(=O)CC#N)C[C@@H]1N(C)c1ncnc2[nH]ccc12,,> 100 µM,> 100 µM,> 100 µM,> 100 µM,> 100 µM,> 100 µM,85.3 µM,> 100 µM,> 100 µM,,57.2 µM,> 100 µM,39.3 µM,> 100 µM,16.3 µM,> 100 µM,42.1 µM,40.6 µM,> 100 µM
CC1C=C(NCC2(CO)CCC2)NC(N)=N1 (centres undefined),> 100 µM,> 100 µM,> 100 µM,,> 100 µM,> 100 µM,> 100 µM,> 100 µM,> 100 µM,> 100 µM,> 100 µM,,,,,,,,,
Cc1ccc(-c2c(C#N)c(S)n(NS(=O)(=O)c3ccccc3)c(=O)c2C#N)cc1,> 100 µM,82 µM,> 100 µM,58.3 µM,> 100 µM,92.9 µM,,> 100 µM,> 100 µM,50.5 µM,> 100 µM,,,,,,,,,
COc1ccc(/C=N/n2c(C)n[nH]c2=O)cc1,> 100 µM,> 100 µM,> 100 µM,> 100 µM,> 100 µM,> 100 µM,> 100 µM,,> 100 µM,> 100 µM,> 100 µM,,,,,,,,,
CCOC(=O)c1ccc(Nc2nc3ccc(C(F)(F)F)cc3nc2-c2ccccc2)cc1,> 100 µM,> 100 µM,> 100 µM,> 100 µM,,> 100 µM,> 100 µM,> 100 µM,,> 100 µM,,,,,,,,,,
CC(=O)O/C(=C(/C#N)C(=O)O)C1C(C(=O)O)C(c2ccccc2[N+](=O)[O-])C=C(c2ccco2)N1c1ccncc1 (centres undefined),9.33 µM,4.5 µM,12.7 µM,3.89 µM,37.4 µM,14.1 µM,21.6 µM,,22.2 µM,4.83 µM,7.26 µM,,,,,,,,,
COc1cc(/C=C2\CCc3cc(OC)c(OC)cc3C2=O)cc(OC)c1,> 100 µM,> 100 µM,> 86.7 µM,> 31 µM,> 100 µM,> 100 µM,> 87.1 µM,> 42.4 µM,> 57.8 µM,> 44.3 µM,,,,,,,,,,
O=[N+]([O-])c1cccc2nc3ccccc3c(NCCNCCO)c12,0.0236 µM and 0.0101 µM,0.0422 µM and 0.0311 µM,0.00448 µM,0.136 µM and 0.0384 µM,0.0162 µM,0.088 µM,0.0799 µM and 0.0174 µM,0.0205 µM,0.00744 µM,> 100 µM,,,,0.0116 µM,,,,,,
C/C(=N/NC(=S)N(Cc1ccccn1)Cc1ccccn1)c1cnccn1,> 35.9 µM,2.39 µM,11.4 µM,,8.14 µM,8.08 µM,14.6 µM,17.4 µM,26 µM,87.1 µM,31.2 µM,,,,,,,,,
Cc1[nH]n(-c2nc(O)c(C)c(=O)[nH]2)c(=O)c1CCO,> 100 µM,> 100 µM,> 100 µM,> 100 µM,> 100 µM,> 100 µM,,93.3 µM,> 100 µM,> 100 µM,> 100 µM,,,,,,,,,
CO/N=C1/C(n2[nH]c(=O)n(-c3ccccc3)c2=O)C2C=CC1n1c(=O)n(-c3ccccc3)c(=O)n12 (centres undefined),> 100 µM,,> 100 µM,> 100 µM,> 100 µM,> 100 µM,,> 100 µM,> 100 µM,> 100 µM,> 100 µM,,,,,,,,,
COc1ccc(NC(C)=O)c(C(=O)CCNC(C)=O)c1,> 100 µM,> 100 µM,> 100 µM,> 100 µM,> 100 µM,> 100 µM,,> 100 µM,> 100 µM,> 100 µM,> 100 µM,,,,,,,,,
CC(C)(C)OC(=O)/C=C/C(=O)O/C=C/[N+](=O)[O-],> 100 µM,> 100 µM,> 100 µM,> 100 µM,,> 100 µM,> 100 µM,> 100 µM,,> 100 µM,> 100 µM,,,,,,,,,
Cc1cc(S(N)(=O)=O)c(S/C(=N\Nc2ccc([N+](=O)[O-])cc2)c2ccc(Cl)cc2)cc1Cl,> 100 µM,10.4 µM,4.91 µM,4.19 µM,4.48 µM,14.9 µM,> 100 µM,3.49 µM,9.58 µM,77.9 µM,,,,,,,,,,
O=[N+]([O-])C(=C/C1CCCCC1)/C(=C\C1CCCCC1)[N+](=O)[O-],22.3 µM,10.7 µM,10.1 µM,9.4 µM,40.1 µM,11.1 µM,19.1 µM,3.93 µM,37.8 µM,3.76 µM,,,,,,,,,,
N#Cc1nsnc1-c1nc(-c2nsnc2C#N)nc(-c2nsnc2C#N)n1,,> 100 µM,> 100 µM,> 100 µM,> 100 µM,> 100 µM,> 100 µM,> 100 µM,> 100 µM,> 100 µM,> 100 µM,,,,,,,,,
